US10947196B2, “Beta adrenergic agonist and methods of using the same” (CURASEN THERAPEUTICS, INC., priority 2019, dated 2021)

Target: β1-adrenergic receptor (Homo sapiens (Human), UniProt P08588)
Assay: cAMP Gs dynamic HTRF assay, β1 expressing CHO cells
Format: cell-based
Conditions: B1-AR; CHO-K1 (HitHunter); read-out: Average pEC50 [Receptor subtype: B1-AR; Cell type: CHO-K1 (HitHunter)] (converted)
Summary of the method: (§1)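 Intracellular cAMP quantified by Eu-donor/d2-acceptor HTRF after 30 min compound exposure at 37° C in stimulation buffer with IBMX. Concentrations ran 10 μM top, 5-fold steps, 10 points. Cell lines: 1321N1 astrocytoma and CHO expressing β1 or β2; EC50 via four-parameter fit, relative efficacy against isoproterenol.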

Sequence of β1-adrenergic receptor (P08588 whole entry, species assumed): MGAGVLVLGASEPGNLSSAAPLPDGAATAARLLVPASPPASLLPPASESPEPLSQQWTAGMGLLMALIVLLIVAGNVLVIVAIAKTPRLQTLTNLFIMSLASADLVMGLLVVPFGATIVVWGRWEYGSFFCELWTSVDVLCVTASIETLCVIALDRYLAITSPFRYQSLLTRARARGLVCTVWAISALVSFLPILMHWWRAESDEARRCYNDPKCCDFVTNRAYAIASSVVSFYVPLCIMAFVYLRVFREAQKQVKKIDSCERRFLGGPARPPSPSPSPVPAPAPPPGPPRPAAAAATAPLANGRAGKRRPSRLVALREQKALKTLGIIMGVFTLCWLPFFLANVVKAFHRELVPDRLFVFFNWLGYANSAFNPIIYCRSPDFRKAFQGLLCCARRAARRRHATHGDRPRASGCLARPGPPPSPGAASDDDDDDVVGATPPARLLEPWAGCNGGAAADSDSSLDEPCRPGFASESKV

First: CC1(NC[C@H](O)c2cccc(C(F)(F)F)n2)CC1 [Compound 03-14]
Second: [2H]C([2H])([2H])C(NCC(O)c1cccc(C(F)(F)F)n1)(C([2H])([2H])[2H])C([2H])([2H])[2H] (stereo not drawn) [Compound 03-49]
The EC50 of the first is lower: 10 to 100 nM for the first, greater than 1000 nM for the second.

Compared with `CC(C)(C)NC[C@H](O)c1cccc(N2CCCC2)n1` [Compound 03-173], `CNc1cccc([C@@H](O)CNC(C)(C)C)n1` [Compound 03-141] is lower in EC50: 100 to 1000 nM for the first, 10 to 100 nM for the second.

`Cc1ccc([C@H](O)CNC(C)(C)C)nc1C#N` [Compound 03-9] and `CC(C)(C)NC[C@H](O)c1cccc(OC(F)(F)F)n1` [Compound 03-37] fall in the same range of EC50: 10 to 100 nM for the first, 10 to 100 nM for the second.

For `CCc1ncccc1[C@@H](O)CNC(C)(C)C` [Compound 03-52], the EC50 was greater than 1000 nM.

Same assay, conditions: B1-AR; CHO-K cells; read-out: Average EC50 [Receptor subtype: B1-AR; Cell type: CHO-K]

Compared with `CC1(NC[C@H](O)c2cccc(C(F)(F)F)n2)CC1` [Compound 03-14], `[2H]C([2H])([2H])C(NCC(O)c1cccc(C(F)(F)F)n1)(C([2H])([2H])[2H])C([2H])([2H])[2H]` (stereo not drawn) [Compound 03-49] is higher in EC50: 10 to 100 nM for the first, greater than 1000 nM for the second.

`CC(C)(C)NC[C@H](O)c1cccc(N2CCCC2)n1` [Compound 03-173] and `CNc1cccc([C@@H](O)CNC(C)(C)C)n1` [Compound 03-141] fall in the same range of EC50: 100 to 1000 nM for the first, 100 to 1000 nM for the second.

`Cc1ccc([C@H](O)CNC(C)(C)C)nc1C#N` [Compound 03-9] and `CC(C)(C)NC[C@H](O)c1cccc(OC(F)(F)F)n1` [Compound 03-37] fall in the same range of EC50: 10 to 100 nM for the first, 10 to 100 nM for the second.

Target: β2 adrenergic receptor (Homo sapiens (Human), UniProt P07550)
Assay: cAMP Gs dynamic HTRF assay, β2 expressing CHO cells
Format: cell-based
Conditions: B2-AR; CHO-K1 (HitHunter); read-out: Average pEC50 [Receptor subtype: B2-AR; Cell type: CHO-K1 (HitHunter)] (converted)
Summary of the method: as §1

Sequence of β2 adrenergic receptor (P07550 whole entry, species assumed): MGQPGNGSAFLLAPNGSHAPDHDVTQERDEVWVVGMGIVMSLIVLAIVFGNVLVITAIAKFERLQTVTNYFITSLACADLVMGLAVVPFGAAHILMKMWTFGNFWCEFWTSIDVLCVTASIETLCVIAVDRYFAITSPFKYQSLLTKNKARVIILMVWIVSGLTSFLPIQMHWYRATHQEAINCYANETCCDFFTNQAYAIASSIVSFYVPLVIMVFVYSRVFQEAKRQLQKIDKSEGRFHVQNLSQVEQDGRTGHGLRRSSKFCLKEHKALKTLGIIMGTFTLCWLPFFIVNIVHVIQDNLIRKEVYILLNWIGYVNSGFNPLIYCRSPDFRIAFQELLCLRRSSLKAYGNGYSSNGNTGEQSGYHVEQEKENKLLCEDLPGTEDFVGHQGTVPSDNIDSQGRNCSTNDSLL

First: CC1(NC[C@H](O)c2cccc(C(F)(F)F)n2)CC1 [Compound 03-14]
Second: CC(C)(C)NC[C@H](O)c1cccc(OC(F)(F)F)n1 [Compound 03-37]
The EC50 of the first is higher: 10 to 100 nM for the first, less than 10 nM for the second.

`CC(C)(C)NC[C@H](O)c1cccc(N2CCCC2)n1` [Compound 03-173] and `CNc1cccc([C@@H](O)CNC(C)(C)C)n1` [Compound 03-141] cannot be ordered by EC50: less than 10 nM for the first, less than 10 nM for the second.

Compared with `Cc1ccc([C@H](O)CNC(C)(C)C)nc1C#N` [Compound 03-9], `CCc1ncccc1[C@@H](O)CNC(C)(C)C` [Compound 03-52] is higher in EC50: less than 10 nM for the first, 100 to 1000 nM for the second.

Same assay, conditions: B2-AR; CHO-K cells; read-out: Average EC50 [Receptor subtype: B2-AR; Cell type: CHO-K]

First: CC1(NC[C@H](O)c2cccc(C(F)(F)F)n2)CC1 [Compound 03-14]
Second: [2H]C([2H])([2H])C(NCC(O)c1cccc(C(F)(F)F)n1)(C([2H])([2H])[2H])C([2H])([2H])[2H] (stereo not drawn) [Compound 03-49]
The EC50 of the first is lower: 10 to 100 nM for the first, 100 to 1000 nM for the second. The first is the more potent here.

`CC(C)(C)NC[C@H](O)c1cccc(N2CCCC2)n1` [Compound 03-173] and `CNc1cccc([C@@H](O)CNC(C)(C)C)n1` [Compound 03-141] cannot be ordered by EC50: less than 10 nM for the first, less than 10 nM for the second.

`Cc1ccc([C@H](O)CNC(C)(C)C)nc1C#N` [Compound 03-9] and `CC(C)(C)NC[C@H](O)c1cccc(OC(F)(F)F)n1` [Compound 03-37] cannot be ordered by EC50: less than 10 nM for the first, less than 10 nM for the second.

Target: β2 adrenergic receptors in human astrocytoma cells (1321N1) (Homo sapiens (Human), UniProt P07550)
Assay: cAMP HTRF assay in human astrocytoma cells (1321N1)
Format: cell-based
Conditions: Endogenous receptor; 1321N1 cells; read-out: Average EC50 [Receptor subtype: Endogenous; Cell type: 1321N1]
Experimental: cAMP homogeneous time-resolved fluorescence (HTRF). Compound efficacy was determined using the cAMP Gs dynamic HTRF assay (Cisbio, catalog #62AM4PEC) largely following the manufacturer's instructions, also detailed below.
Compound preparation. […] Standard serial dilution curves were 10-point, 5-fold dilutions starting from a highest concentration of 10 μM. […] Assay plates were centrifuged at 500×g for 10 seconds. Compounds and IBMX were prepared at 2× final dose to compensate for addition of cells.
Cell preparation. 1× stimulation buffer, washing PBS (Dulbecco's phosphate-buffered saline, −Mg −Ca; Caisson Labs, catalog #PBL01), assay PBS (Dulbecco's phosphate-buffered saline, +Mg, +Ca; Caisson Labs, catalog #PBL02) and Versene (0.02% EDTA disodium salt solution in PBS without calcium or magnesium; Caisson Labs, catalog #EDL01) were pre-warmed to 37° C. Cells expressing beta-adrenergic receptor were washed in washing PBS to remove growth medium and then released from the surface by incubating with Versene for 5-10 minutes at 37° C. Cells were harvested using assay PBS, counted manually by hemocytometer or by an automated cell counter, pelleted by centrifugation (200×g, 5 minutes) and resuspended in 37° C. 1× stimulation buffer to a final density of 1.5×10^6 cells/mL. 5 μL of the suspended cell solution (7500 cell total) were added to all wells of the 384 well assay plate, the assay plate was covered with an Axygen® plate seal (Corning PCR-SP) and incubated in a humidified 37° C. environment supplemented with 5% CO2 for 30 minutes.
HTRF reagent addition, reading and data analysis. After 30 minutes of cell stimulation with test compound, the assay plates were centrifuged at 500×g for 10 seconds, and incubation was stopped with the addition of 5 μL cAMP-D2 acceptor, diluted 1:21 in detection and lysis buffer 2 (Cisbio 62CL2FDF) was added to all cells. Subsequently, 5 μL Anti-cAMP-Eu Donor, diluted 1:21 in detection and lysis buffer 2, was added to cells. Plates were sealed and reactions gently ‘vortexed’ at 900 rpm on a Heidolph Titramax 1000 for at least 30 minutes at room temperature. Plates were centrifuged again at 500×g for 10 seconds, and HTRF was measured using a Tecan Spark plate reader at 50 flashes per well. […] Potency estimates (EC50) were derived from the four-parameter nonlinear regression of the concentration-effect curve and an estimate of relative efficacy was determined by comparing the magnitude of the test compound HTRF signal window (min−max dose) with the signal window of the full agonist control, isoproterenol.

Sequence of β2 adrenergic receptors in human astrocytoma cells (1321N1) (P07550 whole entry): as the sequence (P07550 whole entry, species assumed) above

Work on `[2H]C([2H])([2H])C(NCC(O)c1cccc(C(F)(F)F)n1)(C([2H])([2H])[2H])C([2H])([2H])[2H]` (stereo not drawn) [Compound 03-49] yielded an EC50 greater than 1000 nM.

Same assay, conditions: Endogenous receptor; 1321N1 cells; read-out: Average pEC50 [Receptor subtype: Endogenous; Cell type: 1321N1] (converted)

First: CC1(NC[C@H](O)c2cccc(C(F)(F)F)n2)CC1 [Compound 03-14]
Second: CC(C)(C)NC[C@H](O)c1cccc(OC(F)(F)F)n1 [Compound 03-37]
The EC50 of the first is higher: 100 to 1000 nM for the first, less than 10 nM for the second.

First: CC(C)(C)NC[C@H](O)c1cccc(N2CCCC2)n1 [Compound 03-173]
Second: CNc1cccc([C@@H](O)CNC(C)(C)C)n1 [Compound 03-141]
The EC50 of the first is lower: less than 10 nM for the first, 10 to 100 nM for the second.

First: Cc1ccc([C@H](O)CNC(C)(C)C)nc1C#N [Compound 03-9]
Second: CCc1ncccc1[C@@H](O)CNC(C)(C)C [Compound 03-52]
The EC50 of the first is lower: 10 to 100 nM for the first, greater than 1000 nM for the second.

Target: B3-AR (Homo sapiens (Human), UniProt P13945)
Assay: cAMP potency assay, B3-AR expressing CHO-K1 cells
Format: cell-based
Conditions: read-out: Average EC50 [Receptor subtype: B3-AR, Cell type: CHO-K1]

Sequence of B3-AR (P13945 whole entry, species assumed): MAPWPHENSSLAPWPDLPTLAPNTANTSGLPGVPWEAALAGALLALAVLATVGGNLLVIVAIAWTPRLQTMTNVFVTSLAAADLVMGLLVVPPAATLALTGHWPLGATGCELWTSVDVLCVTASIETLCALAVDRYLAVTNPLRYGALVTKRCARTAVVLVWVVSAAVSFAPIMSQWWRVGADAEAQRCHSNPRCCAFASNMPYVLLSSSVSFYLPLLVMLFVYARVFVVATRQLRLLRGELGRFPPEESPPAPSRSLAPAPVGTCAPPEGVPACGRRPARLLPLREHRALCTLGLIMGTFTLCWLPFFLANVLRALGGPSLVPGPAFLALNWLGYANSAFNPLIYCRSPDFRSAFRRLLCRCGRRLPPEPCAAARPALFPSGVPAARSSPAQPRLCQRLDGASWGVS

Work on `[2H]C([2H])([2H])C(NCC(O)c1cccc(C(F)(F)F)n1)(C([2H])([2H])[2H])C([2H])([2H])[2H]` (stereo not drawn) [Compound 03-49] yielded an EC50 greater than 1000 nM.

Same assay, conditions: read-out: Average pEC50 [Receptor subtype: B3-AR, Cell type: CHO-K1] (converted)

First: CC1(NC[C@H](O)c2cccc(C(F)(F)F)n2)CC1 [Compound 03-14]
Second: CC(C)(C)NC[C@H](O)c1cccc(OC(F)(F)F)n1 [Compound 03-37]
The EC50 of the first is higher: greater than 1000 nM for the first, 100 to 1000 nM for the second.

`CC(C)(C)NC[C@H](O)c1cccc(N2CCCC2)n1` [Compound 03-173] and `CNc1cccc([C@@H](O)CNC(C)(C)C)n1` [Compound 03-141] cannot be ordered by EC50: greater than 1000 nM for the first, greater than 1000 nM for the second.

Compared with `Cc1ccc([C@H](O)CNC(C)(C)C)nc1C#N` [Compound 03-9], `CCc1ncccc1[C@@H](O)CNC(C)(C)C` [Compound 03-52] is higher in EC50: 100 to 1000 nM for the first, greater than 1000 nM for the second.
